Laboratory results taken from the supplement of paper PMC10627819.

How the values were obtained:
Experiment in all cases: Bliss interaction score (quartile over a dose matrix) (fitness difference); higher = more antagonism (negative = synergy)
S. aureus DSM 20231 = tested on: S. aureus DSM 20231
In short: (§1)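 Quartiles of the Bliss score were taken over technical, biological and donor/recipient replicates. That score is observed fitness minus the product of the single-drug fitness values, which were inferred from combination data. Fitness itself is OD595 at entry into stationary phase divided by the plate's robust no-drug mean, with a cap at 1.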

S. aureus Newman = tested on: S. aureus Newman
In short: as §1

S. pneumoniae D39V = tested on: S. pneumoniae D39V
In short: as §1

B. subtilis 168 = tested on: B. subtilis 168
In short: as §1
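Also: first quartile when negative (synergy) and third quartile when positive (antagonism).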

Row | SMILES | Bliss interaction score (S. aureus DSM 20231) | Bliss interaction score (S. aureus Newman) | Bliss interaction score (S. pneumoniae D39V) | Bliss interaction score (B. subtilis 168)
1 | Oc1cc(Cl)ccc1Oc1ccc(Cl)cc1Cl [Triclosan] + COc1cc(Cc2cnc(N)nc2N)cc(OC)c1OC [Trimethoprim] | -0.0451 | 0.0267 | 0.113 | 0.13
2 | C[n+]1ccc(-c2cc[n+](C)cc2)cc1 [Paraquat] + CC1(C)S[C@@H]2[C@H](NC(=O)Cc3ccccc3)C(=O)N2[C@H]1C(=O)O [PenicillinG] | -0.0239 | 0.0437 | -0.0591 | -0.0267
3 | CC[C@H]1OC(=O)[C@H](C)C(=O)[C@H](C)[C@@H](O[C@@H]2O[C@H](C)C[C@H](N(C)C)[C@H]2O)[C@](C)(OC)C[C@@H](C)C(=O)[C@H](C)[C@H]2N(CCCCn3cnc(-c4cccnc4)c3)C(=O)O[C@]12C [Telithromycin] + CC1=C\[C@@H](O)CC(=O)Cc2nc(co2)C(=O)N2CCC=C2C(=O)O[C@H](C(C)C)[C@H](C)/C=C/C(=O)NC\C=C\1 [Virginiamycin M1] | -0.0529 | -0.0314 | -0.037 | -0.0239
4 | CC[C@H]1OC(=O)[C@H](C)[C@@H](O[C@H]2C[C@@](C)(OC)[C@@H](O)[C@H](C)O2)[C@H](C)[C@@H](O[C@@H]2O[C@H](C)C[C@H](N(C)C)[C@H]2O)[C@](C)(O)C[C@@H](C)CN(C)[C@H](C)[C@@H](O)[C@]1(C)O [Azithromycin] + CO[C@@]12[C@H](COC(N)=O)C3=C(C(=O)C(C)=C(N)C3=O)N1C[C@@H]1N[C@@H]12 [MitomycinC] | -0.0652 | 0.0499 | -0.0779 | 0.116
5 | CC[C@H]1OC(=O)[C@H](C)[C@@H](O[C@H]2C[C@@](C)(OC)[C@@H](O)[C@H](C)O2)[C@H](C)[C@@H](O[C@@H]2O[C@H](C)C[C@H](N(C)C)[C@H]2O)[C@](C)(O)C[C@@H](C)CN(C)[C@H](C)[C@@H](O)[C@]1(C)O [Azithromycin] + CC[C@H]1OC(=O)[C@H](C)[C@@H](O[C@H]2C[C@@](C)(OC)[C@@H](O)[C@H](C)O2)[C@H](C)[C@@H](O[C@@H]2O[C@H](C)C[C@H](N(C)C)[C@H]2O)[C@](C)(O)C[C@@H](C)C(=O)[C@H](C)[C@@H](O)[C@]1(C)O [Erythromycin] | -0.056 | -0.0668 | 0.0539 | -0.0754
6 | CC[C@H]1OC(=O)[C@H](C)[C@@H](O[C@H]2C[C@@](C)(OC)[C@@H](O)[C@H](C)O2)[C@H](C)[C@@H](O[C@@H]2O[C@H](C)C[C@H](N(C)C)[C@H]2O)[C@](C)(O)C[C@@H](C)CN(C)[C@H](C)[C@@H](O)[C@]1(C)O [Azithromycin] + N[C@@H]1CONC1=O [CycloserineD] | -0.103 | 0.0743 | 0.135 | 0.0718
7 | CC1=C(C(=O)O)N2C(=O)[C@@H](NC(=O)[C@H](N)c3ccccc3)[C@H]2SC1 [Cephalexin] + CN[C@H](CC(C)C)C(=O)N[C@H]1C(=O)N[C@@H](CC(N)=O)C(=O)N[C@H]2C(=O)N[C@H]3C(=O)N[C@H](C(=O)N[C@H](C(=O)O)c4cc(O)cc(O)c4-c4cc3ccc4O)[C@H](O[C@H]3C[C@](C)(N)[C@@H](O)[C@H](C)O3)c3ccc(c(Cl)c3)Oc3cc2cc(c3O[C@@H]2O[C@H](CO)[C@@H](O)[C@H](O)[C@H]2O[C@H]2C[C@](C)(NCc3ccc(-c4ccc(Cl)cc4)cc3)[C@@H](O)[C@H](C)O2)Oc2ccc(cc2Cl)[C@H]1O [Oritavancin] | 0.0767 | 0.104 | 0.069 | 0.0217
8 | CC1=C(C(=O)O)N2C(=O)[C@@H](NC(=O)[C@H](N)c3ccccc3)[C@H]2SC1 [Cephalexin] + COc1cccc2c1C(=O)c1c(O)c3c(c(O)c1C2=O)C[C@@](O)(C(=O)CO)C[C@@H]3O[C@H]1C[C@H](N)[C@H](O)[C@H](C)O1 [Doxorubicin] | 0.0343 | -0.0552 | -0.111 | 0.084
9 | CC[C@H]1OC(=O)[C@H](C)[C@@H](O[C@H]2C[C@@](C)(OC)[C@@H](O)[C@H](C)O2)[C@H](C)[C@@H](O[C@@H]2O[C@H](C)C[C@H](N(C)C)[C@H]2O)[C@](C)(O)C[C@@H](C)CN(C)[C@H](C)[C@@H](O)[C@]1(C)O [Azithromycin] + CN[C@H](CC(C)C)C(=O)N[C@H]1C(=O)N[C@@H](CC(N)=O)C(=O)N[C@H]2C(=O)N[C@H]3C(=O)N[C@H](C(=O)N[C@H](C(=O)O)c4cc(O)cc(O)c4-c4cc3ccc4O)[C@H](O[C@H]3C[C@](C)(N)[C@@H](O)[C@H](C)O3)c3ccc(c(Cl)c3)Oc3cc2cc(c3O[C@@H]2O[C@H](CO)[C@@H](O)[C@H](O)[C@H]2O[C@H]2C[C@](C)(NCc3ccc(-c4ccc(Cl)cc4)cc3)[C@@H](O)[C@H](C)O2)Oc2ccc(cc2Cl)[C@H]1O [Oritavancin] | -0.0405 | -0.0766 | 0.0492 | 0.0325
10 | O=C(O)[C@H]1/C(=C/CO)O[C@@H]2CC(=O)N21 [Clavulanic] + N[C@@H]1CONC1=O [CycloserineD] | 0.116 | -0.0992 | -0.0906 | 0.0614
11 | CC1=C(C(=O)O)N2C(=O)[C@@H](NC(=O)[C@H](N)c3ccccc3)[C@H]2SC1 [Cephalexin] + CO[C@@]12[C@H](COC(N)=O)C3=C(C(=O)C(C)=C(N)C3=O)N1C[C@@H]1N[C@@H]12 [MitomycinC] | 0.0608 | 0.0613 | -0.0789 | -0.0415
12 | Cc1onc(-c2ccccc2)c1C(=O)N[C@@H]1C(=O)N2[C@@H]1SC(C)(C)[C@@H]2C(=O)O [Oxacillin] + CC1(C)S[C@@H]2[C@H](NC(=O)Cc3ccccc3)C(=O)N2[C@H]1C(=O)O [PenicillinG] | 0.0796 | -0.0558 | -0.235 | -0.0214
13 | O=C(O)[C@H]1/C(=C/CO)O[C@@H]2CC(=O)N21 [Clavulanic] + CC(=O)O[C@H]1C[C@@]2(C)[C@@H](C[C@@H](O)[C@H]3[C@@]4(C)CC[C@@H](O)[C@@H](C)[C@@H]4CC[C@@]32C)/C1=C(\CCC=C(C)C)C(=O)O [Fusidic acid] | -0.265 | 0.209 | -0.0441 | -0.0604
14 | O=C(O)[C@H]1/C(=C/CO)O[C@@H]2CC(=O)N21 [Clavulanic] + CC1(C)S[C@@H]2[C@H](NC(=O)Cc3ccccc3)C(=O)N2[C@H]1C(=O)O [PenicillinG] | -0.147 | -0.128 | 0.0529 | -0.351
